Laboratory results published in US20240216412A1, “OXIDIZED NICOTINAMIDE ADENINE DINUCLEOTIDE (NAD+) PRECURSOR TREATMENT FOR HEART FAILURE ALLEVIATION INDEPENDENT OF MITOCHONDRIAL PROTEIN DEACETYLATION” (University of Washington, priority 2022, published 2024).

System: chronic pressure overload (TAC) induced heart failure in WT and Sirt3Ko mice
Assay: Transthoracic echocardiography after transverse aortic constriction (TAC) or sham surgery
Type: in vivo, mouse
Conditions: for EF / FS / IVS; s / LV Mass / LV Mass (corr.) / LV Vol; d / LV Vol; s / LVID; d / LVID; s / LVPW; d / LVPW; s: NR; for IVS; d: NR 500 mg/kg body weight daily for eight weeks
Description: The present disclosure provides boosting intracellular NAD^+ with nicotinamide riboside chloride (NR) to protect Sirtuin 3 (Sirt3) knockout mice from heart failure. NR is a natural NAD precursor that bypasses nicotinamide phosphoribosyltransferase (NAMPT) to stimulate intracellular NAD^+ synthesis via the Nrk reaction (Bieganowski and Brenner, 2004; Canto et al., 2012; Diguet et al., 2018; Trammell et al., 2016). […] Immunoblotting confirmed the absence of Sirt3 and increased lysine acetylation in mitochondrial extracts from the knockout hearts (FIG. 9A). Pressure overload was induced by transverse aortic constriction (TAC) surgery for 12 weeks. Intracellular NAD^+ level was increased when mice had already developed cardiac hypertrophy and dysfunction, to model a therapeutic approach (FIG. 1A). After 4 weeks of chronic pressure overload, cardiac function was assessed using trans-thoracic M-mode echocardiography.
Mice randomly received either NR (500 mg/kg body weight) (Canto et al., 2012) or vehicle saline daily for eight-weeks. Representative M-mode images for the echocardiography can be found in FIGS. 1C and 1D. Four weeks of chronic pressure overload caused similar declines in left ventricular fractional shortening (FS %) in mice randomized to NR or vehicle groups for either WT or Sirt3Ko (FIGS. 1E and 1F). […] Similar to NR treated WT, cardiac hypertrophy, left ventricular cavity dilation, and lung edema were less severe in Sirt3Ko TAO mice that received NR treatment (FIGS. 1B-1J). All echocardiography parameters can be found in Table 1 below.
All procedures involving animal use were approved by the Institutional Animal Care and Use Committee (IACUC) of the University of Washington. Wild-type mice (129S1/SvlmJ Stock No: 002448) and Sirtuin 3 knockout mice (129-Sirt3tm1.1Fwa/J Stock No: 012755) were purchased from Jackson Laboratories. All mice were housed at 22° C. with a 12-hr light, 12-hr dark cycle with free access to water and standard chow. Male mice were used for experiments in this study.
Transverse aortic constriction. Male mice (3-4 months old) underwent transverse aortic constriction (TAC) or sham surgery. Briefly, mice were anesthetized with an IP injection of 130 mg/kg ketamine and 8.8 mg/kg xylazine in saline. Mice were intubated with 20 G cannula and ventilated 140 breaths per minute by small animal TOPO ventilator (Kent Scientific). The aortic arch was exposed via a left thoracotomy and by carefully separating the thymus. A constriction of the transverse aorta was generated by tying a 6-0 Ethilon ligature against a 27-gauge blunt needle around the aorta between the brachiocephalic and left common carotid arteries. Promptly the needle was removed and the chest and skin were closed by 5-0 polypropylene suture. The animal was removed from ventilation and kept on a heating blanket during recovery from anesthesia. SR buprenorphine (0.05 mg/kg) was administered subcutaneously for analgesia. Sham operated mice underwent all the same procedures as TAC mice excluding the constriction of the aorta. All mice were monitored every 12 h during the first 72 h post-surgery, followed by daily visits over the next 4 weeks.
Transthoracic Echocardiography. Echocardiography of hearts was performed at indicated time after surgery using the VEVO 2100 high-frequency, high-resolution digital imaging system (VisualSonics) equipped with a MS400 Microscan Transducer on anesthetized mice (0.5%-2% isoflurane in 95% oxygen). Measurements were made when heart rate was >450 bpm. Cardiac function and geometry measurements were measured in parasternal short axis view. M-mode images were used for analysis and calculated by the average of at least three cardiac cycles and carried out in a blind fashion. Hearts were harvested at 12-week post-surgery for subsequent experiments and biochemical assays.

## NC(=O)c1ccc[n+]([C@@H]2O[C@H](CO)[C@@H](O)[C@H]2O)c1 [NR, Nicotinamide riboside chloride]
Sirt3Ko TAC mice, similar to NR treated WT
  Left ventricular cavity dilation: less severe
Sirt3Ko TAC mice, vs vehicle treatment
  Advances of heart failure: protected the Sirt3Ko TAO mice from advances of heart failure
Sirt3Ko, Sham
  EF: 71.3%
  FS: 39.7%
  IVS; s: 1.49 mm
  LV Mass: 146.9 mg
  LV Mass (corr.): 117.5 mg
  LV Vol; d: 42.0 µL
  LV Vol; s: 12.1 µL
  LVID; d: 3.21 mm
  LVID; s: 1.94 mm
  LVPW; d: 1.30 mm
  LVPW; s: 1.69 mm
  IVS; d: 1.04 mm
Sirt3Ko, TAC
  EF: 59.2%
  FS: 30.9%
  IVS; s: 1.67 mm
  LV Mass: 168.9 mg
  LV Mass (corr.): 135.1 mg
  LV Vol; d: 47.8 µL
  LV Vol; s: 19.8 µL
  LVID; d: 3.39 mm
  LVID; s: 2.35 mm
  LVPW; d: 1.22 mm
  LVPW; s: 1.51 mm
  IVS; d: 1.22 mm
WT TAC mice, 8-week treatment
  Fractional shortening (FS %): preserved FS %
Wildtype, Sham
  EF: 78.9%
  FS: 46.3%
  IVS; s: 1.72 mm
  LV Mass: 141.9 mg
  LV Mass (corr.): 113.5 mg
  LV Vol; d: 37.3 µL
  LV Vol; s: 7.9 µL
  LVID; d: 3.07 mm
  LVID; s: 1.65 mm
  LVPW; d: 1.27 mm
  LVPW; s: 1.64 mm
  IVS; d: 1.12 mm
Wildtype, TAC
  EF: 62.5%
  FS: 32.7%
  IVS; s: 1.78 mm
  LV Mass: 183.9 mg
  LV Mass (corr.): 147.1 mg
  LV Vol; d: 36.7 µL
  LV Vol; s: 13.7 µL
  LVID; d: 3.04 mm
  LVID; s: 2.04 mm
  LVPW; d: 1.52 mm
  LVPW; s: 1.85 mm
  IVS; d: 1.30 mm
